How the values were obtained:
PDX P100422 = experiment: Tumor growth of pancreatic cancer PDX P100422; type: in vivo, mice
Description: (§1) Kinome reprogramming in PDX models: De-identified tumors from patients are grafted into immunecompromised mice and passaged. All tumors are characterized using microarray and mutational analysis. Hematoxylin & eosin staining of a patient tumor at the time of operation and after several passages over a 1.5 yr period showing similar glandular architecture with surrounding stroma. Variable levels of pERK1/2 and pAKT(S473) was seen across pancreatic cancer PDX. PDX P100422 with moderate levels of pAKT was selected for BKM120 treatment. pAKT expression in BKM120 versus vehicle treated PDX tumor. Mice were treated daily with either vehicle control (n=3) or BKM120 (n=3) and tumors were harvested 4-6 h after the last dose. PDX tumors were treated daily for 28 days. […] The 3 vehicle control and 3 BKM120 treated tumors showing inhibition of pAKT were analyzed using MIB/MS. Activation and repression of the kinome in response to PI3K inhibition in PDX P100422.

AKT = AKT phosphorylation in pancreatic cancer PDX tumors; type: in vivo, mice; details: daily treatment, harvested 4-6 h after last dose
Protocol: as §1, with “Kinome reprogramming in PDX model of pancreatic cancer after BKM120 treatment: The kinome response of a pancreatic cancer PDX to BKM120 treatment was evaluated using MIB/MS. […] Kinome” for “Kinome”

MEK-ERK pathway = experiment: Window trial in TNBC patients (LCCC 1122), MIB/MS of tumor biopsies; type: in vivo, human; details: 7-day post-treatment versus pre-treatment biopsy, preliminary
Description: Kinome reprogramming in TNBC patients treated with the MEK inhibitor GSK1120212 is being evaluated (LCCC 1122).

MEK1 = MEK1 activation in HPAC pancreatic cancer cells; type: cell-based
Protocol: Kinome reprogramming in pancreatic cancer—cell type and inhibitor specific. The kinome response to drug in 3 pancreatic cancer cell lines (HPAC, AsPC-1, HPAF-II) was also evaluated using 3 kinase inhibitors that are currently in Phase I/II clinical trials: BKM120 (Novartis), an oral pan-class 1 PI3K inhibitor, […] (Glaxo Smith-Kline), an ATP competitive PI3K/mTOR inhibitor, and GSK1120212, a reversible allosteric inhibitor of MEK1/2 (Glaxo Smith-Kline). The kinome response for GSK2126458 and GSK1120212 was compared using MIB/MS and RTK arrays to determine if kinome reprogramming was inhibitor-specific. […] Thus, kinome reprogramming is target-specific.

MEK = details: Gilmartin et al. 2011; cited from earlier work
BT474 cells = experiment: BT474 luminescent cell viability assay; type: cell-based; details: 50 nM lapatinib, 0-72 hours
Protocol: The different colors represent different time points of (50 nM) lapatinib treatment relative to DMSO control-treated cells. From light to dark, the time points are 4, 24, and 48 hrs of lapatinib treatment.

Nc1cc(C(F)(F)F)c(-c2cc(N3CCOCC3)nc(N3CCOCC3)n2)cn1 [BKM120]
effectiveness in the PDX model (PDX P100422; small sample size): not clearly effective
number of tumors showing tumor growth inhibition relative to controls (PDX P100422; treated daily for 28 days): 4 tumors
AKT phosphorylation (AKT): inhibited AKT phosphorylation

CC(=O)Nc1cccc(-n2c(=O)n(C3CC3)c(=O)c3c(Nc4ccc(I)cc4F)n(C)c(=O)c(C)c32)c1 [GSK1120212]
MEK-ERK pathway in patient tumors (MEK-ERK pathway): effectively inhibited
kinome reprogramming in patient tumors (MEK-ERK pathway): upregulation of MRCKG, FER and DDR1
MEK1 activation (MEK1): inhibited MEK1 activation
fold lower affinity of MEK phosphorylated at the activation loop serines than nonphosphorylated MEK (MEK): 20 fold

CS(=O)(=O)CCNCc1ccc(-c2ccc3ncnc(Nc4ccc(OCc5cccc(F)c5)c(Cl)c4)c3c2)o1 [lapatinib]
growth of BT474 cells (BT474 cells): growth inhibition

— US20140243239A1, “MULTIPLEXED KINASE INHIBITOR BEADS AND USES THEREOF” (University of North Carolina at Chapel Hill, priority 2011, published 2014)
